Molecular target: 229E Mpro (Human coronavirus 229E (HCoV-229E), UniProt P0C6X1)
Assay: 229E Mpro activity
Type: biochemical
Settings: 229E Mpro EC50
Experimental: Compounds are assayed using standard methods to assess compound activity and IC50. […] The assay buffer contains 20 mM of Tris-HCl (pH 7.3), 100 mM of NaCl, 1 mM of EDTA, 5mM of TCEP and 0.1% BSA.

Chain of 229E Mpro (P0C6X1 2966-3267 limits assumed): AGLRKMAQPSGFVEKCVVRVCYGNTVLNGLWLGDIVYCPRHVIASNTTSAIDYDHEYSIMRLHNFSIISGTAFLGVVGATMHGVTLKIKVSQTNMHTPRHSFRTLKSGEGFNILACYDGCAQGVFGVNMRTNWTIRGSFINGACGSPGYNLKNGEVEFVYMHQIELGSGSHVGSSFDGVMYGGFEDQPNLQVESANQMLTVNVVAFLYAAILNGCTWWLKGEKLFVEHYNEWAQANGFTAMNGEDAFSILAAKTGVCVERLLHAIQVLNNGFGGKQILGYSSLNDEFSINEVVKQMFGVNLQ

**Q.** How did the EC50 turn out when `CC1(C)CCC(C[C@@H](C#N)NC(=O)[C@H](CC2CC2)NC(=O)c2cc3cccc(Cl)c3[nH]2)C(=O)N1` (single isomer, unassigned) [Compound 749 (Isomer 1)] was run?
**A.** 2 to 10 µM

Same assay, conditions: read-out: 229E Mpro EC50

**Q.** Which EC50 does the source give for `N#C[C@H](C[C@@H]1CCNC1=O)NC(=O)C1CC2(CCCCC2)CN1C(=O)c1cc2ccc(Cl)cc2[nH]1` (single isomer, unassigned) [878 (Isomer 2)] here?
**A.** 10 to 30 µM

**Q.** How did the EC50 turn out when `COc1ccc2[nH]c(C(=O)N3CC4(CCCCC4)CC3C(=O)N[C@H](C#N)C[C@@H]3CCNC3=O)cc2c1Cl` (single isomer, unassigned) [880 (Isomer 1)] was run?
**A.** 10 to 30 µM

**Q.** For `COc1ccc2[nH]c(C(=O)N3CC4(CCCCC4)CC3C(=O)N[C@H](C#N)C[C@@H]3CCNC3=O)cc2c1Cl` (single isomer, unassigned) [880 (Isomer 2)], which EC50 is on record?
**A.** < 2 µM

**Q.** Which EC50 does the source give for `N#C[C@H](C[C@@H]1CCNC1=O)NC(=O)C1CC2(CCCCC2)CN1C(=O)c1cc2cccc(Cl)c2[nH]1` (single isomer, unassigned) [984 (Isomer 1)] here?
**A.** < 2 µM

**Q.** Which EC50 does the source give for `N#C[C@H](C[C@@H]1CCNC1=O)NC(=O)C1CC2(CCCCC2)CN1C(=O)c1cc2cccc(Cl)c2[nH]1` (single isomer, unassigned) [984 (Isomer 2)] here?
**A.** > 30 µM

**Q.** For `N#C[C@H](C[C@@H]1CCNC1=O)NC(=O)C1CC2(CCCCC2)CN1C(=O)c1cc2ccc(Cl)c(Cl)c2[nH]1` (single isomer, unassigned) [986 (Isomer 1)], which EC50 is on record?
**A.** < 2 µM

**Q.** Which EC50 does the source give for `N#C[C@H](C[C@@H]1CCNC1=O)NC(=O)C1CC2(CCCCC2)CN1C(=O)c1cc2ccc(Cl)c(Cl)c2[nH]1` (single isomer, unassigned) [986 (Isomer 2)] here?
**A.** > 30 µM

**Q.** Which EC50 does the source give for `COc1cccc2[nH]c(C(=O)N[C@@H](CC3CC3)C(=O)N[C@](C)(C#N)CC3CCNC3=O)cc12` (single isomer, unassigned) [1055 (Isomer 1)] here?
**A.** > 30 µM

**Q.** For `CC1(C)CCC(C[C@@H](C#N)NC(=O)[C@H](CC2CC2)NC(=O)c2cc3cccc(Cl)c3[nH]2)C(=O)N1` (single isomer, unassigned) [Compound 749 (Isomer 2)], which EC50 is on record?
**A.** 2 to 10 µM

**Q.** With `CC(C)C[C@H](NC(=O)c1nc2ncccc2[nH]1)C(=O)N[C@H](C#N)C[C@@H]1CCNC1=O` [Compound 131, N-[(1S)-1-[[(1S)-1-cyano-2-[(3S)-2-oxopyrrolidin-3-yl]ethyl]carbamoyl]-3-methyl-butyl]-1H-imidazo[4,5-b]pyridine-2-carboxamide] as the compound, how does the EC50 read?
**A.** < 2 µM

**Q.** `COc1cccc2[nH]c(C(=O)N[C@@H](CC(C)C)C(=O)N[C@H](/C=C/S(C)(=O)=O)C[C@@H]3CCNC3=O)cc12` [Compound 136, 4-methoxy-N-[(1S)-3-methyl-1-[[(E,1S)-3-methylsulfonyl-1-[[(3S)-2-oxopyrrolidin-3-yl]methyl]allyl]carbamoyl]butyl]-1H-indole-2-carboxamide] was tested. Which EC50 did it give?
**A.** < 2 µM

**Q.** For `COc1cccc2[nH]c(C(=O)N[C@H](C(=O)N[C@H](C#N)C[C@@H]3CCNC3=O)[C@@H]3Cc4ccccc4O3)cc12` [Compound 147, N-((S)-2-(((S)-1-cyano-2-((S)-2-oxopyrrolidin-3-yl)ethyl)amino)-1-((S)-2,3-dihydrobenzofuran-2-yl)-2-oxoethyl)-4-methoxy-1H-indole-2-carboxamide], which EC50 is on record?
**A.** > 30 µM

**Q.** With `COc1cccc2[nH]c(C(=O)N[C@H](C(=O)N[C@H](C#N)C[C@@H]3CCNC3=O)C3Cc4ccccc4C3)cc12` [Compound 149, N-[(1S)-2-[[(1S)-1-cyano-2-[(3S)-2-oxopyrrolidin-3-yl]ethyl]amino]-1-indan-2-yl-2-oxo-ethyl]-4-methoxy-1H-indole-2-carboxamide] as the compound, how does the EC50 read?
**A.** 2 to 10 µM

**Q.** With `COc1cccc2[nH]c(C(=O)N[C@@H](Cc3cccc(Cl)c3)C(=O)N[C@H](C#N)C[C@@H]3CCNC3=O)cc12` [Compound 153] as the compound, how does the EC50 read?
**A.** 10 to 30 µM

**Q.** For `COc1cccc2[nH]c(C(=O)N3C[C@H](OC(C)(C)C)C[C@H]3C(=O)N[C@H](C#N)C[C@@H]3CCNC3=O)cc12` [Compound 165, (2S,4R)-4-(tert-butoxy)-N-((S)-1-cyano-2-((S)-2-oxopyrrolidin-3-yl)ethyl)-1-(4-methoxy-1H-indole-2-carbonyl)pyrrolidine-2-carboxamide], which EC50 is on record?
**A.** > 30 µM

**Q.** With `COc1cccc2[nH]c(C(=O)N3CCC4(CC4)C[C@H]3C(=O)N[C@H](C#N)C[C@@H]3CCNC3=O)cc12` [Compound 183, (S)-N-((S)-1-cyano-2-((S)-2-oxopyrrolidin-3-yl)ethyl)-6-(4-methoxy-1H-indole-2-carbonyl)-6-azaspiro[2.5]octane-5-carboxamide] as the compound, how does the EC50 read?
**A.** 2 to 10 µM

**Q.** For `N#C[C@H](C[C@@H]1CCNC1=O)NC(=O)[C@@H]1C[C@@H](c2ccccc2)CN1C(=O)/C=C/c1ccc(Cl)cc1F` [Compound 209, (2S,4S)-1-((E)-3-(4-chloro-2-fluorophenyl)acryloyl)-N-((S)-1-cyano-2-((S)-2-oxopyrrolidin-3-yl)ethyl)-4-phenylpyrrolidine-2-carboxamide], which EC50 is on record?
**A.** 2 to 10 µM

**Q.** For `N#C[C@H](C[C@@H]1CCNC1=O)NC(=O)[C@@H]1CCCNN1C(=O)/C=C/c1ccc(Cl)cc1F` [Compound 213, (3S)-2-[(E)-3-(4-chloro-2-fluoro-phenyl)prop-2-enoyl]-N-[(1S)-1-cyano-2-[(3S)-2-oxopyrrolidin-3-yl]ethyl]hexahydropyridazine-3-carboxamide], which EC50 is on record?
**A.** > 30 µM

**Q.** `COc1cccc2[nH]c(C(=O)N[C@@H](CC(C)C)C(=O)N[C@H](C#N)Cc3cncn3C)cc12` [Compound 225] was tested. Which EC50 did it give?
**A.** > 30 µM

**Q.** Which EC50 does the source give for `COc1cccc2[nH]c(C(=O)N[C@@H](CC(C)C)C(=O)N[C@H](C#N)Cc3cn(C)cn3)cc12` [Compound 227, N-[(1S)-1-[[(1S)-1-cyano-2-(1-methylimidazol-4-yl)ethyl]carbamoyl]-3-methyl-butyl]-4-methoxy-1H-indole-2-carboxamide] here?
**A.** > 30 µM

**Q.** For `N#C[C@H](C[C@@H]1CCNC1=O)NC(=O)[C@H](CC1CC1)N1CCc2cc[nH]c2C1=O` [Compound 267, (2S)-N-[(1S)-1-cyano-2-[(3S)-2-oxopyrrolidin-3-yl]ethyl]-3-cyclopropyl-2-(7-oxo-4,5-dihydro-1H-pyrrolo[2,3-c]pyridin-6-yl)propanamide], which EC50 is on record?
**A.** < 2 µM

**Q.** How did the EC50 turn out when `N#C[C@H](C[C@@H]1CCNC1=O)NC(=O)[C@@H](CC1CC1)N1CCc2cc[nH]c2C1=O` [Compound 267A, (2R)-N-[(1S)-1-cyano-2-[(3S)-2-oxopyrrolidin-3-yl]ethyl]-3-cyclopropyl-2-(7-oxo-4,5-dihydro-1H-pyrrolo[2,3-c]pyridin-6-yl)propanamide] was run?
**A.** > 30 µM

**Q.** For `N#C[C@H](C[C@@H]1CCNC1=O)NC(=O)[C@H](CC1CC1)n1ccc2[nH]cnc2c1=O` [Compound 269, (2S)-N-[(1S)-1-cyano-2-[(3S)-2-oxopyrrolidin-3-yl]ethyl]-3-cyclopropyl-2-(4-oxo-3H-imidazo[4,5-c]pyridin-5-yl)propanamide], which EC50 is on record?
**A.** > 30 µM

**Q.** For `CN1CCCC[C@]12CCN([C@H](CC1CC1)C(=O)N[C@H](C#N)C[C@@H]1CCNC1=O)C2=O` [Compound 273A, (2R)-N-[(1S)-1-cyano-2-[(3S)-2-oxopyrrolidin-3-yl]ethyl]-3-cyclopropyl-2-[(5R)-6-methyl-1-oxo-2,6-diazaspiro[4.5]decan-2-yl]propanamide], which EC50 is on record?
**A.** > 30 µM

**Q.** With `CN1CCCC[C@@]12CCN([C@H](CC1CC1)C(=O)N[C@H](C#N)C[C@@H]1CCNC1=O)C2=O` [Compound 273B, (2R)-N-[(1S)-1-cyano-2-[(3S)-2-oxopyrrolidin-3-yl]ethyl]-3-cyclopropyl-2-[(5S)-6-methyl-1-oxo-2,6-diazaspiro[4.5]decan-2-yl]propanamide] as the compound, how does the EC50 read?
**A.** > 30 µM

**Q.** With `CN1CCCC[C@]12CCN([C@@H](CC1CC1)C(=O)N[C@H](C#N)C[C@@H]1CCNC1=O)C2=O` [Compound 273C, (2S)-N-[(1S)-1-cyano-2-[(3S)-2-oxopyrrolidin-3-yl]ethyl]-3-cyclopropyl-2-[(5R)-6-methyl-1-oxo-2,6-diazaspiro[4.5]decan-2-yl]propanamide] as the compound, how does the EC50 read?
**A.** 2 to 10 µM

**Q.** For `COc1cccc2[nH]c(C(=O)N[C@@H](CC3CC3)C(=O)N[C@@]3(C#N)CCc4cccnc4C3)cc12` [Compound 279], which EC50 is on record?
**A.** > 30 µM

**Q.** Which EC50 does the source give for `COc1cccc2[nH]c(C(=O)N3C[C@H]4CCC[C@H]4[C@H]3C(=O)N[C@H](C#N)C[C@@H]3CCNC3=O)cc12` [Compound 305] here?
**A.** < 2 µM

**Q.** How did the EC50 turn out when `COc1cccc2[nH]c(C(=O)N[C@@H](CC(C)C)C(=O)N[C@@H](C[C@@H]3CCNC3=O)C(C#N)Nc3ccccc3)cc12` (stereo partly drawn) [Compound 327, N-[(1S)-1-[[(1S)-2-anilino-2-cyano-1-[[(3S)-2-oxopyrrolidin-3-yl]methyl]ethyl]carbamoyl]-3-methyl-butyl]-4-methoxy-1H-indole-2-carboxamide] was run?
**A.** < 2 µM

**Q.** With `CCCN1C(=N)C([C@H](C[C@@H]2CCNC2=O)NC(=O)[C@H](CC(C)C)NC(=O)c2cc3c(OC)cccc3[nH]2)OC1=O` (stereo partly drawn) [Compound 355, N-((2S)-1-(((1 S)-1-(4-imino-2-oxo-3-propyloxazolidin-5-yl)-2-((S)-2-oxopyrrolidin-3-yl)ethyl)amino)-4-methyl-1-oxopentan-2-yl)-4-methoxy-1H-indole-2-carboxamide] as the compound, how does the EC50 read?
**A.** 2 to 10 µM

**Q.** For `COc1cccc2[nH]c(C(=O)N[C@@H](CC(C)C)C(=O)N[C@@H](C[C@@H]3CCNC3=O)C3OC(=O)N(C(C)C)C3=N)cc12` (stereo partly drawn) [Compound 357, N-((2S)-1-(((1S)-1-(4-imino-3-isopropyl-2-oxooxazolidin-5-yl)-2-((S)-2-oxopyrrolidin-3-yl)ethyl)amino)-4-methyl-1-oxopentan-2-yl)-4-methoxy-1H-indole-2-carboxamide], which EC50 is on record?
**A.** > 30 µM

**Q.** For `COc1cccc2[nH]c(C(=O)N[C@@H](CC(C)C)C(=O)N[C@@H](C[C@@H]3CCNC3=O)C3OC(=O)N(c4ccccc4)C3=N)cc12` (stereo partly drawn) [Compound 359, N-[(1S)-1-[[(1S)-1-(4-imino-2-oxo-3-phenyl-oxazolidin-5-yl)-2-[(3S)-2-oxopyrrolidin-3-yl]ethyl]carbamoyl]-3-methyl-butyl]-4-methoxy-1H-indole-2-carboxamide], which EC50 is on record?
**A.** 10 to 30 µM

**Q.** How did the EC50 turn out when `COc1cccc2[nH]c(C(=O)N3CC4(CCOCC4)C[C@H]3C(=O)N[C@H](C#N)C[C@@H]3CCNC3=O)cc12` [Compound 387, N-((S)-1-cyano-2-((S)-2-oxopyrrolidin-3-yl)ethyl)-2-(4-methoxy-1H-indole-2-carbonyl)-8-oxa-2-azaspiro[4.5]decane-3-carboxamide] was run?
**A.** > 30 µM

— patent US11524940B1, “Inhibitors of cysteine proteases and methods of use thereof” (priority 2020, dated 2022)
